Measurements as given in patent US11802127B2, “3,4-dihydro-2,7-naphthyridine-1,6(2H,7H)-diones as MEK inhibitors” (Pfizer Inc., priority 2021, dated 2023).

Tests used:
[1] = biological target: T1, P-gp (MDR1) (Homo sapiens, UniProt P08183); experiment: Efflux ratio in MDR1 transfected LLC-PK1 cells; format: in vitro ADME; details: pig, Papp(B−A)/Papp(A−B)
T1 construct: expressed in transfected cells; host or cells: LLC-PK1 (porcine kidney) cells transfected with MDR1
Procedure: (§1) Both LLC-PK1 and MDR1 transfected LLC-PK1 cells were cultured and plated according to manufacturer's recommendations with the exception that the passage media contained only 2% fetal bovine serum to extend passage time out to seven days.
(§2) Both positive and negative controls were used to assess functionality of P-gp or BCRP efflux in the assays. Stock solutions for assay controls and the test article were prepared in DMSO for final test concentrations of 10 and 1 μM, respectively. Final organic concentration in the assay was 1%. All dosing solutions contained 10 μM lucifer yellow to monitor LLC-PK1 or MDCKII cell monolayer integrity.
(§3) For the apical to basolateral determination (A to B), 75 μL of the test article in transport buffer were added to the apical side of the individual transwells and 250 μL of basolateral media, without compound or lucifer yellow, were added to each well. For the basolateral to apical determination (B to A), 250 μL of test article in transport buffer were added to each well and 75 μL transport buffer, without compound or lucifer yellow, were added to each transwell. All tests were performed in triplicate, and each compound was tested for both apical to basolateral and basolateral to apical transport. The plates were incubated for 2 hours on a Lab-Line Instruments Titer Orbital Shaker (VWR, West Chester, PA) at 50 rpm and 37° C. with 5% CO2. All culture plates were removed from the incubator and 50 μL of media were removed from the apical and basolateral portion of each well and added to 150 μL of 1 μM labetalol in 2:1 acetonitrile (acetonitrile): H2O, v/v.
(§4) The plates were read using a Molecular Devices (Sunnyvale, CA) Gemini Fluorometer to evaluate the lucifer yellow concentrations at excitation/emission wavelengths of 425/535 nm. These values were accepted when found to be below 2% for apical to basolateral and 5% basolateral to apical flux across the MDR1-transfected LLC-PK1 or BCRP-transfected MDCKII cell monolayers. The plates were sealed and the contents of each well analyzed by LC-MS/MS. The compound concentrations were determined from the ratio of the peak areas of the compound to the internal standard (labetalol) in comparison to the dosing solution.
(§5) The LC-MS/MS system was comprised of an HTS-PAL autosampler (Leap Technologies, Carrboro, NC), an HP1200 HPLC (Agilent, Palo Alto, CA), and a MDS Sciex 4000 Q Trap system (Applied Biosystems, Foster City, CA). […] The total run time, including re-equilibration, for a single injection was 1.2 minutes. Mass spectrometric detection of the analytes was accomplished using the ion spray positive mode. Analyte responses were measured by multiple reaction monitoring (MRM) of transitions unique to each compound (the protonated precursor ion and selected product ions for each test article and m/z 329 to m/z 162 for labetalol, the internal standard).
(§6) An efflux ratio is calculated from the mean apical to basolateral (A−B) Papp data and basolateral to apical (B−A) Papp data: Efflux ratio=Papp(B−A)/Papp(A−B)

[2] = test system: ERK1/2(Thr202/Tyr204) phosphorylation (MEK-dependent) in A375 cells; experiment: Cellular Phospho-p44/42 MAPK (Erk1/2) (Thr202/Tyr204) Assay; format: cell-based; details: Homo sapiens, A-375, 1-hour incubation, pERK1/2 (Thr202/Tyr204) In-Cell Western normalized to GAPDH
Procedure: Inhibition of ERK1/2(Thr202/Tyr204) phosphorylation was determined by the following cellular assay, which comprises incubating cells with a compound for 1 hour and quantifying pERK signal by In-Cell Western on fixed cells and normalizing to GAPDH signal. A375 cells were obtained from the ATCC and grown in DMEM supplemented with 10% fetal bovine serum, penicillin/streptomycin, Glutamax®, non-essential amino acids, and sodium pyruvate. Cells were plated in 96-well plates at 30,000 cells/well and allowed to attach overnight at 37° C./5% CO2. Cells were treated with compounds prepared as a 10-point, 1:3 dilution series (range: 20 μM-0.05 nM; maximum concentration varied from 20 μM-1 μM), with a final DMSO concentration of 0.5%. Control wells contained either 0.5% DMSO alone (no inhibition control) or 1 μM of a potent control compound (complete inhibition control). After a 1-hour incubation, cells were fixed in 3.7% formaldehyde in dPBS (Dulbecco's phosphate-buffered saline) at room temperature for 20 minutes. Cells were then washed with dPBS and permeabilized in 100% MeOH at room temperature for 10 minutes. Following permeabilization, cells were washed in dPBS and incubated in LI-COR Blocking Buffer (LI-COR Biosciences, Cat #927-40000) for 1 hour or longer. Plates were then incubated with an antibody specific for the MEK-dependent ERK1/2 phosphorylation sites, threonine 202 and tyrosine 204 (Cell Signaling Technologies; Cat #9101), downstream of MEK in the MAP kinase signal transduction pathway, as well as GAPDH (Millipore; Cat #MAB374). pErk1/2 (Thr202/Tyr204) antibody was diluted in LI-COR blocking buffer containing 0.05% Tween-20 at 1:250; GAPDH was diluted at 1:2,500. The plates were incubated overnight at 4° C. After washing with PBS/0.05% Tween-20, the cells were incubated with fluorescently-labeled secondary antibodies (Anti-rabbit-Alexa Flour680, Invitrogen Cat #A21109; Anti-mouse-IRDye800CW, LI-COR Biosciences Cat #926-32210, both at 1:1000 dilution) for 1 hour. Cells were then washed, as above, and analyzed for fluorescence at both 680 and 800 nm wavelengths using the Odyssey CLx Infrared Imaging System (LI-COR Biosciences). Phosphorylated Erk1/2 (Thr202/Tyr204) signal was normalized to GAPDH signal for each well.

[3] = MDR1 LLC-PK1 and BCRP MDCKII Permeability Assay: permeability coefficient (Papp); format: in vitro ADME; details: MDCK, test article 1 μM, 37° C.
Procedure: as §1
(§7) BCRP transfected MDCKII canine P-gp knockout cell line was cultured and plated according to manufacturer's recommendations.
as §2, §3, §4, §5

[4] = biological target: T2, BCRP (hBCRP) (Homo sapiens, UniProt Q9UNQ0); experiment: Efflux ratio in BCRP transfected MDCKII canine P-gp knockout cells; format: in vitro ADME; details: Papp(B−A)/Papp(A−B), read-out: Efflux ratio MDCKII-hBCRP knock-in,canine pg-P KO
T2 construct: expressed in transfected cells; host or cells: MDCKII (canine kidney) cells, canine P-gp knockout, transfected with BCRP
T2 sequence (Q9UNQ0 1-655): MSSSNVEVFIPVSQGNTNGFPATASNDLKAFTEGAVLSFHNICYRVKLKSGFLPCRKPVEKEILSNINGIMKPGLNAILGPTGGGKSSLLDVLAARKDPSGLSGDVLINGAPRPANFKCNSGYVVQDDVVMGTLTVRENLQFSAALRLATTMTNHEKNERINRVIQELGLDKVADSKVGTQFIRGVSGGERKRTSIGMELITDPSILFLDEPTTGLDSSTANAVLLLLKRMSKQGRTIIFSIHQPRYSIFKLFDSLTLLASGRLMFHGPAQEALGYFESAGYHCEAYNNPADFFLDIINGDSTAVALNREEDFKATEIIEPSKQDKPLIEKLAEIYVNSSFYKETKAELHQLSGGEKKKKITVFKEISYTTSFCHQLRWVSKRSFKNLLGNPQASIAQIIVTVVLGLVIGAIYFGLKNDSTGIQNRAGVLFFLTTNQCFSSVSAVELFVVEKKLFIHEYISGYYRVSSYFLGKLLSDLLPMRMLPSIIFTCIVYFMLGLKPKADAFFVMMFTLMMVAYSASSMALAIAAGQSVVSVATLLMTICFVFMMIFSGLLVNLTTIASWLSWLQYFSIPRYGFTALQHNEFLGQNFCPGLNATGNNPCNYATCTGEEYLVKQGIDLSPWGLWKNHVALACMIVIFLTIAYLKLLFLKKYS
Procedure: as §7, §2, §3, §4, §5, §6

T1 sequence (P08183 whole entry): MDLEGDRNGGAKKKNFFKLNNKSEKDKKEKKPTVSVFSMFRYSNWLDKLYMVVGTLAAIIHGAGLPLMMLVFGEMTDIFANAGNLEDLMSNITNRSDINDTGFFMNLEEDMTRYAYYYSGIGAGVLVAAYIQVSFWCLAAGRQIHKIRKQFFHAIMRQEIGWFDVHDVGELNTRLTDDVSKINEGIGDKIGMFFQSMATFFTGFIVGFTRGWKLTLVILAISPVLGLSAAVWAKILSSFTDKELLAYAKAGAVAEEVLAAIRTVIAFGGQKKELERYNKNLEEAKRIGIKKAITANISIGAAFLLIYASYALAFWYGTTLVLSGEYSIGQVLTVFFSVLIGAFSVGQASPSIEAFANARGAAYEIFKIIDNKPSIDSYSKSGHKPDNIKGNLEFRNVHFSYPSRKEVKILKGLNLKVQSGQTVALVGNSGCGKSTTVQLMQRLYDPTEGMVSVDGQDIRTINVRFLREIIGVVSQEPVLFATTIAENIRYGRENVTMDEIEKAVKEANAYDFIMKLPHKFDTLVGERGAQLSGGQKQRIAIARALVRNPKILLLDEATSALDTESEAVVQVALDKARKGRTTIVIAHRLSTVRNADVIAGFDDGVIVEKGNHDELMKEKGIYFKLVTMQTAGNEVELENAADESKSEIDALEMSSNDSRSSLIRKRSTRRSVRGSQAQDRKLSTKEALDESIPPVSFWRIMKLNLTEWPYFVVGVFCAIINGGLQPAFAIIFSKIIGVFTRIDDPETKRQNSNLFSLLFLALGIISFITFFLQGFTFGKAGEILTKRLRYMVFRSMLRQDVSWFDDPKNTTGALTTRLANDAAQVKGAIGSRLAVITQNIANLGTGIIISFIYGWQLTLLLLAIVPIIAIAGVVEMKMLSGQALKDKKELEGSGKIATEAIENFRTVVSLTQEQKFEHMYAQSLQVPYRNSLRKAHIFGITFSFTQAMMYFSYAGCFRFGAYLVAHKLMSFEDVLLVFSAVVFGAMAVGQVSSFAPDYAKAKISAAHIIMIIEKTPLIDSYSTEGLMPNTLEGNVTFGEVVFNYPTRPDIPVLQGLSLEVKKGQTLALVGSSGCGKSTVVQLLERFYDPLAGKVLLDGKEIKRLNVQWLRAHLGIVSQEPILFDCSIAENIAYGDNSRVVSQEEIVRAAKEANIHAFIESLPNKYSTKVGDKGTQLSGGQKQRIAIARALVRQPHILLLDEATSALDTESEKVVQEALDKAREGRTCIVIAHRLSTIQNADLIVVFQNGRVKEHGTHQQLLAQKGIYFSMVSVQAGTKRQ

Row | Compound | efflux ratio at 2 h, 1 μM [1] | Papp at 2 h, 1 μM [3] | efflux ratio at 2 h, 1 μM [4] | IC50 [2]
1 | Cn1c(Nc2ccc(C3CC3)cc2F)c2c(cc1=O)CCN(OCCO)C2=O [Example 15, 8-((4-cyclopropyl-2-fluorophenyl)amino)-2-(2-hydroxyethoxy)-7-methyl-3,4-dihydro-2,7-naphthyridine-1,6(2H,7H)-dione] | 3.7 | 27.5 ×10⁻⁶ cm/s | 2.2 | 17 nM
2 | Cn1c(Nc2ccc(C3CC3)cc2Cl)c2c(cc1=O)CCN(OCCO)C2=O [Example 19, 8-((2-chloro-4-cyclopropylphenyl)amino)-2-(2-hydroxyethoxy)-7-methyl-3,4-dihydro-2,7-naphthyridine-1,6(2H,7H)-dione] | 3.3 | 25.9 ×10⁻⁶ cm/s | 1.5 | 29 nM
3 | CSc1ccc(Nc2c3c(cc(=O)n2C)CCN(OCCO)C3=O)c(Cl)c1 [Example 21, 8-((2-chloro-4-(methylthio)phenyl)amino)-2-(2-hydroxyethoxy)-7-methyl-3,4-dihydro-2,7-naphthyridine-1,6(2H,7H)-dione] | 4.2 | 28.8 ×10⁻⁶ cm/s | 3 | 10 nM
4 | CCc1ccc(Nc2c3c(cc(=O)n2C)CCN(OCCO)C3=O)c(Cl)c1 [Example 23, 8-((2-chloro-4-ethylphenyl)amino)-2-(2-hydroxyethoxy)-7-methyl-3,4-dihydro-2,7-naphthyridine-1,6(2H,7H)-dione] | 3.2 | 30.4 ×10⁻⁶ cm/s | 2 | 26 nM
5 | Cn1c(Nc2ccc(SC(F)F)cc2F)c2c(cc1=O)CCN(OCCO)C2=O [Example 25, 8-((4-((difluoromethyl)thio)-2-fluorophenyl)amino)-2-(2-hydroxyethoxy)-7-methyl-3,4-dihydro-2,7-naphthyridine-1,6(2H,7H)-dione] | 5.7 | 26.4 ×10⁻⁶ cm/s | 14.1 | 3 nM
6 | CC(C)ON1CCc2cc(=O)n(C)c(Nc3ccc(I)cc3F)c2C1=O [Example 27, 8-((2-fluoro-4-iodophenyl)amino)-2-isopropoxy-7-methyl-3,4-dihydro-2,7-naphthyridine-1,6(2H,7H)-dione] | 0.9 | 25.1 ×10⁻⁶ cm/s | 1.4 | 142 nM
7 | C[C@H](O)CON1CCc2cc(=O)n(C)c(Nc3ccc(I)cc3F)c2C1=O [Example 31, (S)-8-((2-fluoro-4-iodophenyl)amino)-2-(2-hydroxypropoxy)-7-methyl-3,4-dihydro-2,7-naphthyridine-1,6(2H,7H)-dione] | 5.3 | 24.8 ×10⁻⁶ cm/s | 4.4 | 1 nM

Now from value to compound, other results behind:

Row | efflux ratio at 2 h, 1 μM [1] | Papp at 2 h, 1 μM [3] | efflux ratio at 2 h, 1 μM [4] | Compound | IC50 [2]
8 | 6.7 | 26.5 ×10⁻⁶ cm/s | 6.3 | Cn1c(Nc2ccc(Br)cc2Cl)c2c(cc1=O)CCN(OCCO)C2=O [Example 10, 8-((4-bromo-2-chlorophenyl)amino)-2-(2-hydroxyethoxy)-7-methyl-3,4-dihydro-2,7-naphthyridine-1,6(2H,7H)-dione] | 58 nM
9 | 1.1 | 26.1 ×10⁻⁶ cm/s | 1.1 | CCON1CCc2cc(=O)n(C)c(Nc3ccc(I)cc3F)c2C1=O [Example 28, 2-ethoxy-8-((2-fluoro-4-iodophenyl)amino)-7-methyl-3,4-dihydro-2,7-naphthyrdine-1,6(2H,7H)-dione] | 26 nM
10 | 1.5 | 32.8 ×10⁻⁶ cm/s | 1.1 | CON1CCc2cc(=O)n(C)c(Nc3ccc(I)cc3F)c2C1=O [Example 29, 8-((2-fluoro-4-iodophenyl)amino)-2-methoxy-7-methyl-3,4-dihydro-2,7-naphthyridine-1,6(2H,7H)-dione] | 17 nM
11 | 6.5 | 24.8 ×10⁻⁶ cm/s | 5.2 | C[C@@H](O)CON1CCc2cc(=O)n(C)c(Nc3ccc(I)cc3F)c2C1=O [Example 32, (R)-8-((2-fluoro-4-iodophenyl)amino)-2-(2-hydroxypropoxy)-7-methyl-3,4-dihydro-2,7-naphthyridine-1,6(2H,7H)-dione] | 10 nM
12 | 4 | 24.7 ×10⁻⁶ cm/s | 8.3 | C[C@H](O)CON1CCc2cc(=O)n(C)c(Nc3ccc(Br)cc3F)c2C1=O [Example 33, (S)-8-((4-bromo-2-fluorophenyl)amino)-2-(2-hydroxypropoxy)-7-methyl-3,4-dihydro-2,7-naphthyridine-1,6(2H,7H)-dione] | 19 nM
13 | 2.7 | 28.6 ×10⁻⁶ cm/s | 3.3 | Cn1c(Nc2ccc(Br)cc2F)c2c(c(Cl)c1=O)CCN(OCCO)C2=O [Example 37, 8-((4-bromo-2-fluorophenyl)amino)-5-chloro-2-(2-hydroxyethoxy)-7-methyl-3,4-dihydro-2,7-naphthyridine-1,6(2H,7H)-dione] | 116 nM
